Data from patent US5488060A, “Substituted thiadiazoles, compositions containing them and their use as antimicrobial and marine antifouling agents” (The Dow Chemical Company, priority 1994, dated 1996).
Converted amounts (≈) assume the structure as drawn. Like-named read-outs stand apart in the source and are kept apart here.

Tests used:
Assay type in all cases: cell-based
[1] = test system: Enterobacter aerogenes (Ea); test: Minimum inhibitory concentration (MIC) in nutrient agar, Enterobacter aerogenes; conditions: Klebsiella aerogenes
In short: (§1)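 Bacteria were grown 24 h at 30° C in nutrient broth with shaking, then diluted to 10^8 CFU/mL. These suspensions were stamped onto dried nutrient agar plates, neutral (pH 6.8) and alkaline (pH 8.2), that held compound at final 500–1.0 ppm. The plates were incubated 48 h at 30° C.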

[2] = test system: Salmonella choleraesuis (Se); test: Minimum inhibitory concentration (MIC) in nutrient agar, Salmonella choleraesuis; conditions: Salmonella enterica
In short: as §1

[3] = test system: Candida albicans (Ca); test: Minimum inhibitory concentration (MIC) in malt yeast agar, Candida albicans
In short: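 Malt yeast agar pH 5.5 + cpd (from 1% soln in acetone/water) at final 500–zero ppm, poured at 48 °C, dried 24 h. Inoculum: 7-day 30 °C slants suspended in saline/octylphenoxy polyethoxy ethanol, diluted 1:9, replicator-spotted. Incubated 30 °C; read 48 h yeast, 72 h fungi.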

[4] = test system: Trichoderma viride (Tv); test: Minimum inhibitory concentration (MIC) in malt yeast agar, Trichoderma viride
In short: (§2)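 Plates of pH 5.5 malt yeast agar carried test compound dispersed from a one percent acetone–water solution, final 500 to zero ppm. After diluted slant-culture suspensions were applied, plates were kept at 30 °C and examined at 72 h for fungi, 48 h for yeast.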

[5] = test system: Klebsiella pneumoniae (Kp); test: Minimum inhibitory concentration (MIC) in nutrient agar, Klebsiella pneumoniae
In short: as §1

[6] = test system: Penicillium chrysogenum (Pc); test: Minimum inhibitory concentration (MIC) in malt yeast agar, Penicillium chrysogenum; conditions: 72 h, pH 5.5, read-out: Minimum Inhibitory Concentration, PC
In short: as §2

[7] = test system: Aspergillus niger (An); test: Minimum inhibitory concentration (MIC) in malt yeast agar, Aspergillus niger; conditions: 72 h, pH 5.5, read-out: Minimum Inhibitory Concentration, An
In short: as §2

[8] = 48 h, pH 8.2, read-out: Minimum Inhibitory Concentration, Ea
[9] = pH 6.8, nutrient agar, 30° C., 48 hours, read-out: Minimum Inhibitory Concentration, SC
[10] = pH 6.8, nutrient agar, 30° C., 48 hours, read-out: Minimum Inhibitory Concentration, Kp

SMILES: N#CSc1nsnc1-c1ccccc1 [Example I, 4-Phenyl-3-thiocyanato-1,2,5-thiadiazole]
- MIC [1, 8]: 500 µg/mL (≈ 2280 µM)
- MIC ([1]; pH 6.8, nutrient agar, 30° C., 48 hours, read-out: Minimum Inhibitory Concentration, Ea): 100 µg/mL (≈ 456 µM)
- MIC ([2]; 48 h, pH 8.2, read-out: Minimum Inhibitory Concentration, SC): > 500 µg/mL
- MIC [2, 9]: 50 µg/mL (≈ 228 µM)
- MIC ([3]; 48 h, pH 5.5, read-out: Minimum Inhibitory Concentration, Ca): 2.5 µg/mL (≈ 11.4 µM)
- MIC ([4]; pH 5.5, malt yeast agar, 30° C., 72 hours for fungi, read-out: Minimum Inhibitory Concentration, Tv): 2.5 µg/mL (≈ 11.4 µM)
- MIC ([5]; 48 h, pH 8.2, read-out: Minimum Inhibitory Concentration, Kp): 500 µg/mL (≈ 2280 µM)
- MIC [5, 10]: 25 µg/mL (≈ 114 µM)

SMILES: N#CSCSc1nsnc1-c1ccccc1 [Example XVI, 4-Phenyl-3-thiocyanato-methylthio-1,2,5-thiadiazole]
- MIC [6]: 2.5 µg/mL (≈ 9.42 µM)
- MIC ([1]; 48 h, pH 6.8, read-out: Minimum Inhibitory Concentration, Ea): 50 µg/mL (≈ 188 µM)
- MIC [1, 8]: 500 µg/mL (≈ 1880 µM)
- MIC [2, 9]: 25 µg/mL (≈ 94.2 µM)
- MIC ([2]; pH 8.2, nutrient agar, 30° C., 48 hours, read-out: Minimum Inhibitory Concentration, SC): 250 µg/mL (≈ 942 µM)
- MIC ([3]; pH 5.5, malt yeast agar, 30° C., 48 hours for yeast, read-out: Minimum Inhibitory Concentration, Ca): 5 µg/mL (≈ 18.8 µM)
- MIC [7]: 2.5 µg/mL (≈ 9.42 µM)
- MIC ([4]; 72 h, pH 5.5, read-out: Minimum Inhibitory Concentration, Tv): 10 µg/mL (≈ 37.7 µM)
- MIC [5, 10]: 25 µg/mL (≈ 94.2 µM)
- MIC ([5]; pH 8.2, nutrient agar, 30° C., 48 hours, read-out: Minimum Inhibitory Concentration, Kp): 100 µg/mL (≈ 377 µM)
